Measurements published in patent publication US11299488B2, “Five membered-aminoheterocycle and 5,6-or 6,6-membered bicyclic aminoheterocyclic inhibitors of rock for the treatment of heart failure” (BRISTOL-MYERS SQUIBB COMPANY, priority 2017, dated 2022).
pIC50: −log10 of the molar value.

The compounds below were run against ROCK2 (Homo sapiens (Human), UniProt O75116) (assay: ROCK assay (Caliper LABCHIP peptide phosphorylation, 5 μM ATP)).
Sequence of ROCK2 (O75116 whole entry, species assumed): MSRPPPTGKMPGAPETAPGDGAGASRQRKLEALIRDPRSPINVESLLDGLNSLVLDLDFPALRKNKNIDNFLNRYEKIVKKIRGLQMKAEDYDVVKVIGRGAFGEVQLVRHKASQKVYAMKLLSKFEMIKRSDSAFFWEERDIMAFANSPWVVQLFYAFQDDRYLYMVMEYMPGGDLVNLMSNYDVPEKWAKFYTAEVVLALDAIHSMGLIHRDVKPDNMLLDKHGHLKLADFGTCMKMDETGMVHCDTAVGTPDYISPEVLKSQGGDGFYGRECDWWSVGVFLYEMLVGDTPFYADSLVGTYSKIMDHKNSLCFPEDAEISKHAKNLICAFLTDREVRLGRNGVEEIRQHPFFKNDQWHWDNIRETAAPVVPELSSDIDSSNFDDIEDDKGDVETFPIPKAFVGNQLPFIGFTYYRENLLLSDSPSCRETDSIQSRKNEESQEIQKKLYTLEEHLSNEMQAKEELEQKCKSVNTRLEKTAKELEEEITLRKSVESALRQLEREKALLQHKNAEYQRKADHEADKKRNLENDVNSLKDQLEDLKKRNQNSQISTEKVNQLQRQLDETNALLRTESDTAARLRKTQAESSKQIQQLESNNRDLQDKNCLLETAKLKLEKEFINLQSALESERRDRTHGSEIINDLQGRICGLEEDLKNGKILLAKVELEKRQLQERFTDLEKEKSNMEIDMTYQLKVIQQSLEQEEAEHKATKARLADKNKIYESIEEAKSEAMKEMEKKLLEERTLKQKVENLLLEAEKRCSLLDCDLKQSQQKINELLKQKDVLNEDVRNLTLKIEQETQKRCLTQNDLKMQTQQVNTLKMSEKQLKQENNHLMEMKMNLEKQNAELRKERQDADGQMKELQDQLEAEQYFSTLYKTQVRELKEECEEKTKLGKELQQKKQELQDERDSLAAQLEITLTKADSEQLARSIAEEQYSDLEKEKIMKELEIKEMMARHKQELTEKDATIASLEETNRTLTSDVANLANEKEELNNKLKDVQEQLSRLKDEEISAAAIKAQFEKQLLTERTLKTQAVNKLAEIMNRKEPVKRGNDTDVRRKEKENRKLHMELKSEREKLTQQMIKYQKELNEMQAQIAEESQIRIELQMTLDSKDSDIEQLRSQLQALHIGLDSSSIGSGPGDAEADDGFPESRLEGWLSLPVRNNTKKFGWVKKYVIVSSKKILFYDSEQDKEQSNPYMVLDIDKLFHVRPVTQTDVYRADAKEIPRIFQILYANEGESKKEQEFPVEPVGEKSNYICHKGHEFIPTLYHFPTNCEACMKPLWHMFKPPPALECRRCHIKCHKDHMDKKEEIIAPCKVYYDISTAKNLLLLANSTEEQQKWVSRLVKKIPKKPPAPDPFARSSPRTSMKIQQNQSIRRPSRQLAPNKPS
Type: biochemical
Description: The effectiveness of compounds of the present invention as ROCK inhibitors can be determined in a 30 μL assay containing 20 mM HEPES, pH 7.5, 20 mM MgCl2, 0.015% Brij-35, 4 mM DTT, 5 μM ATP and 1.5 μM peptide substrate (FITC-AHA-AKRRRLSSLRA-OH) (SEQ ID No. 1). Compounds were dissolved in DMSO so that the final concentration of DMSO was <2%, and the reaction was initiated with Rho kinase variants. After incubation, the reaction was terminated by the addition of EDTA and the phosphorylated and non-phosphorylated peptides separated using a LABCHIP® 3000 Reader (Caliper Life Sciences). […] Compounds were tested in dose-response format, and the inhibition of kinase activity was calculated at each concentration of compound. The inhibition data were fit using a curve-fitting program to determine the IC50; i.e., the concentration of compound required to inhibit 50% of kinase activity. Representative Examples were tested in the ROCK assay described above and found having ROCK inhibitory activity. A range of ROCK inhibitory activity (IC50 values) of ≤50 μM (50000 nM) was observed. Table A below lists the ROCK IC50 values measured for the following examples.
With “2-(((2S,4r,6S)- 6-((2- ((S)-3- fluoro- pyrrolidin- 1- yl) pyrimidin-4- yl)amino) spiro[3.3] heptan-2- yl)oxy) nicotinamide [Example 69]” the pIC50 was 5.81. Compound `NC(=O)c1cccnc1O[C@H]1CC2(C[C@H](Nc3nc4cc(F)c(Br)cc4s3)C2)C1` (stereo partly drawn) [Example 1, 2-(((2S,4s,6S)-6-((6-bromo-5-fluorobenzo[d]thiazol-2-yl)amino)spiro[3.3]heptan-2-yl)oxy)nicotinamide] has a pIC50 of 6.26. `NC(=O)c1cccnc1O[C@H]1C[C@@]2(C[C@H](Nc3nc4ccc(F)cc4s3)C2)C1` (stereo partly drawn) [Example 2, 2-(((2S,4s,6S)-6-((6-fluorobenzo[d]thiazol-2-yl)amino)spiro[3.3]heptan-2-yl)oxy)nicotinamide] showed a pIC50 of 6.81. `NC(=O)c1cccnc1O[C@H]1C[C@@]2(C[C@H](Nc3nc4ccc(Cl)cc4s3)C2)C1` (stereo partly drawn) [Example 3, 2-(((2S,4s,6S)-6-((6-chlorobenzo[d]thiazol-2-yl)amino)spiro[3.3]heptan-2-yl)oxy)nicotinamide] gave a pIC50 of 6.57. Work on `NC(=O)c1cccnc1O[C@H]1C[C@@]2(C[C@H](Nc3nc4c(F)cccc4o3)C2)C1` (stereo partly drawn) [Example 6, 2-(((2S,4s,6S)-6-((4-fluorobenzo[d]oxazol-2-yl)amino)spiro[3.3]heptan-2-yl)oxy)nicotinamide] yielded a pIC50 of 6.96. For `COc1ccc(-c2csc(N[C@H]3C[C@]4(C3)C[C@H](Oc3ncccc3C(N)=O)C4)n2)cc1` (stereo partly drawn) [Example 8, 2-(((2S,4s,6S)-6-((4-(4-methoxyphenyl)thiazol-2-yl)amino)spiro[3.3]heptan-2-yl)oxy)nicotinamide], the pIC50 was 6.94. Compound `NC(=O)c1cccnc1O[C@H]1C[C@@]2(C[C@H](Nc3nc(-c4ccccc4F)cs3)C2)C1` (stereo partly drawn) [Example 11, 2-(((2S,4s,6S)-6-((4-(2-fluorophenyl)thiazol-2-yl)amino)spiro [3.3]heptan-2-yl)oxy)nicotinamide] has a pIC50 of 5.94. For `NC(=O)c1cccnc1O[C@H]1C[C@@]2(C[C@H](Nc3nc(-c4ccc(F)cc4)cs3)C2)C1` (stereo partly drawn) [Example 12, 2-(((2S,4s,6S)-6-((4-(4-fluorophenyl)thiazol-2-yl)amino)spiro [3.3]heptan-2-yl)oxy)nicotinamide], the pIC50 was 6.07. Compound `NC(=O)c1cccnc1O[C@H]1C[C@@]2(C[C@H](Nc3nc(-c4ccccc4)cs3)C2)C1` (stereo partly drawn) [Example 13, 2-(((2S,4s,6S)-6-((4-phenylthiazol-2-yl)amino)spiro[3.3]heptan-2-yl)oxy)nicotinamide] has a pIC50 of 7.02. In the case of `Cn1c(N[C@H]2C[C@]3(C2)C[C@H](Oc2ncccc2C(N)=O)C3)nc2c(F)cccc21` (stereo partly drawn) [Example 14, 2-(((2S,4s,6S)-6-((4-fluoro-1-methyl-1H-benzo[d]imidazol-2-yl)amino)spiro[3.3]heptan-2-yl)oxy)nicotinamide], the pIC50 was 6.49. Compound `Cn1cc(-c2cccc3sc(N[C@H]4C[C@]5(C4)C[C@H](Oc4ncccc4C(N)=O)C5)nc23)cn1` (stereo partly drawn) [Example 15, 2-(((2S,4s,6S)-6-((4-(l-methyl-1H-pyrazol-4-yl)benzo[d]thiazol-2-yl)amino)spiro[3.3]heptan-2-yl)oxy)nicotinamide] has a pIC50 of 6.22. Work on `NC(=O)c1cccnc1O[C@H]1C[C@@]2(C[C@H](Nc3nnc(-c4ccc(OC(F)(F)F)cc4)o3)C2)C1` (stereo partly drawn) [Example 16, 2-(((2S,4s,6S)-6-((5-(4-(trifluoromethoxy)phenyl)-1,3,4-oxadiazol-2-yl)amino)spiro[3.3]heptan-2-yl)oxy)nicotinamide] yielded a pIC50 of 7.02. Work on `NC(=O)c1cccnc1O[C@H]1C[C@@]2(C[C@H](Nc3nnc(-c4ccc(F)cc4)o3)C2)C1` (stereo partly drawn) [Example 17, 2-(((2S,4s,6S)-6-((5-(4-fluorophenyl)-1,3,4-oxadiazol-2-yl)amino)spiro[3.3]heptan-2-yl)oxy)nicotinamide] yielded a pIC50 of 7.15. Compound `NC(=O)c1cccnc1O[C@H]1C[C@@]2(C[C@H](Nc3nnc(-c4ccc(F)c(F)c4)o3)C2)C1` (stereo partly drawn) [Example 18, 2-(((2S,4s,6S)-6-((5-(3,4-difluorophenyl)-1,3,4-oxadiazol-2-yl)amino)spiro[3.3]heptan-2-yl)oxy)nicotinainide] has a pIC50 of 6.49. In the case of `NC(=O)c1cccnc1O[C@H]1C[C@@]2(C[C@H](Nc3nnc(-c4ccc(F)c(F)c4F)o3)C2)C1` (stereo partly drawn) [Example 19, 2-(((2S,4s,6S)-6-((5-(2,3,4-trifluorophenyl)-1,3,4-oxadiazol-2-yl)amino)spiro[3.3]heptan-2-yl)oxy)nicotinamide], the pIC50 was 6.54. For `NC(=O)c1cccnc1O[C@H]1C[C@@]2(C[C@H](Nc3nnc(-c4ccc(F)cc4F)o3)C2)C1` (stereo partly drawn) [Example 20, 2-(((2S,4s,6S)-6-((5-(2,4-difluorophenyl)-1,3,4-oxadiazol-2-yl)amino)spiro[3.3]heptan-2-yl)oxy)nicotinamide], the pIC50 was 6.27. In the case of `NC(=O)c1cccnc1O[C@H]1C[C@@]2(C[C@H](Nc3cnc4cc(F)ccc4n3)C2)C1` (stereo partly drawn) [Example 21, 2-(((2S,4s,6S)-6-((6-fluoroquinoxalin-2-yl)amino)spiro[3.3]heptan-2-yl)oxy)nicotinamide], the pIC50 was 7.14. `NC(=O)c1cccnc1O[C@H]1C[C@@]2(C[C@H](Nc3cnc4ccc(F)cc4n3)C2)C1` (stereo partly drawn) [Example 22, 2-(((2S,4s,6S)-6-((7-fluoro-quinoxalin-2-yl)amino)spiro[3.3]heptan-2-yl)oxy) nicotinamide] gave a pIC50 of 6.83. With `COc1ccc2ncnc(N[C@H]3C[C@]4(C3)C[C@H](Oc3ncccc3C(N)=O)C4)c2c1` (stereo partly shown) [Example 23] the pIC50 was 7.21. With `NC(=O)c1cccnc1O[C@H]1C[C@@]2(C[C@H](Nc3ncnc4cc(Cl)ccc34)C2)C1` (stereo partly drawn) [Example 24, 2-(((2S,4s,6S)-6-((7-chloro-quinazolin-4-yl)amino)spiro[3.3]heptan-2-yl)oxy) nicotinamide] the pIC50 was 6.99. For `COc1ccc2c(N[C@H]3C[C@]4(C3)C[C@H](Oc3ncccc3C(N)=O)C4)ncnc2c1` (stereo partly drawn) [Example 25, 2-(((2S,4s,6S)-6-((7-methoxy-quinazolin-4-yl)amino)spiro[3.3]heptan-2-yl)oxy) nicotinamide], the pIC50 was 6.78. With `NC(=O)c1cccnc1O[C@H]1C[C@@]2(C[C@H](Nc3ncnc4ccc(F)cc34)C2)C1` (stereo partly drawn) [Example 26, 2-(((2S,4s,6S)-6-((6-fluoro-quinazolin-4-yl)amino)spiro[3.3]heptan-2-yl)oxy) nicotinamide] the pIC50 was 6.89. `NC(=O)c1cccnc1O[C@H]1C[C@@]2(C[C@H](Nc3ncc4ccccc4n3)C2)C1` (stereo partly drawn) [Example 28, 2-(((2S,4s, 6S)-6-(quinazolin-2-ylamino)spiro [3.3]heptan-2-yl)oxy) nicotinamide] was tested, and the pIC50 was 6.59. Compound `NC(=O)c1cccnc1O[C@H]1C[C@@]2(C[C@H](Nc3ncc4cc(F)ccc4n3)C2)C1` (stereo partly drawn) [Example 29, 2-(((2S,4s,6S)-6-((6-fluoro-quinazolin-2-yl)amino)spiro [3.3]heptan-2-yl)oxy) nicotinamide] has a pIC50 of 6.85. With `NC(=O)c1cccnc1O[C@H]1C[C@@]2(C[C@H](Nc3ncc4ccc(F)cc4n3)C2)C1` (stereo partly drawn) [Example 30, 2-(((2S,4s,6S)-6-((7-fluoro-quinazolin-2-yl)amino)spiro[3.3]heptan-2-yl)oxy) nicotinamide] the pIC50 was 6.63. With `Cc1ccc2c(N[C@H]3C[C@]4(C3)C[C@H](Oc3ncccc3C(N)=O)C4)nccc2c1` (stereo partly drawn) [Example 31, 2-(((2S,4s, 6S)-6-((6-methyl-isoquinolin-1-yl)amino)spiro [3.3]heptan-2-yl)oxy) nicotinamide] the pIC50 was 7.33. For `COc1ccc2c(N[C@H]3C[C@]4(C3)C[C@H](Oc3ncccc3C(N)=O)C4)nc(OC)cc2c1` (stereo partly shown) [Example 32], the pIC50 was 7.17. `COc1ccc2c(N[C@H]3C[C@]4(C3)C[C@H](Oc3ncccc3C(N)=O)C4)nccc2c1` (stereo partly drawn) [Example 33, 2-(((2S,4s,6S)-6-((6-methoxy-isoquinolin-1-yl)amino)spiro [3.3]heptan-2-yl)oxy) nicotinamide] showed a pIC50 of 7.77. With `N#Cc1ccc(-c2cnc(N[C@H]3CC4(C3)C[C@H](Oc3ncccc3C(N)=O)C4)nc2)cc1` (stereo partly drawn) [Example 34, 2-(((2S,4s,6S)-6-((5-(4-cyanophenyl)pyrimidin-2-yl)amino)spiro[3.3]heptan-2-yl)oxy)nicotinamide] the pIC50 was 6.98. `NC(=O)c1cccnc1OC1CC2(CC(Nc3ncc4cc(Br)ccc4n3)C2)C1` [Example 35, 2-(((2S,4s,6S)-6-((6-bromo-quinazolin-2-yl)amino)spiro[3.3]heptan-2-yl)oxy) nicotinamide] gave a pIC50 of 6.72. `[H][C@]1(Oc2ncccc2C(N)=O)C[C@]2(C[C@@H](Nc3nccc(N4CCC(F)(F)CC4)n3)C2)C1` (stereo partly drawn) [Example 37, 2-(((2S,4s,6S)-6-((4-(4,4-difluoro-piperidin-1-yl)pyrimidin-2-yl)amino)spiro[3.3]heptan-2-yl)oxy) nicotinamide] showed a pIC50 of 6.69. With `[H][C@]1(Oc2ncccc2C(N)=O)C[C@]2(C[C@@H](Nc3nccc(N4CCC(F)(F)C4)n3)C2)C1` (stereo partly drawn) [Example 38, 2-(((2S,4s,6S)-6-((4-(3,3-difluoro-pyrrolidin-1-yl)pyrimidin-2-yl)amino)spiro[3.3]heptan-2-yl)oxy) nicotinamide] the pIC50 was 6.41. `[H][C@]1(Oc2ncccc2C(N)=O)C[C@]2(C[C@@H](Nc3nccc(N4CC(F)(F)C4)n3)C2)C1` (stereo partly drawn) [Example 39, 2-(((2S,4s,6S)-6-((4-(3,3-difluoro-azetidin-1-yl)pyrimidin-2-yl)amino)spiro[3.3]heptan-2-yl)oxy) nicotinamide] showed a pIC50 of 6.01. `[H][C@]1(Oc2ncccc2C(N)=O)C[C@]2(C[C@@H](Nc3nccc(N4CCC(F)CC4)n3)C2)C1` (stereo partly drawn) [Example 40, 2-(((2S,4s,6S)-6-((4-(4-fluoro-piperidin-1-yl)pyrimidin-2-yl)amino)spiro [3.3]heptan-2-yl)oxy) nicotinamide] was tested, and the pIC50 was 6.42.
